pIC50: −log10 of the molar value.
Legend:
[1] = system: MIA-PaCa-2 (MP2) shCtrl/shCav-1 cells; assay: Uptake by direct fluorescence in MP2 shCtrl vs shCav-1 cells; type: cell-based; settings: 250 nM pulsed 2 h
Experimental: (§1) Cells were pulsed either 1 hour with 0.1% FITC-HAS or 2 hours with 250 nM SN/38/SSH20 prior to fixation. When applicable, in order to remove membrane-bound albumin, two acid/salt washes were performed with 0.1M glycine and 0.1M NaCl, pH 3.02 for 2 minutes each, followed by two washes with phosphate buffer saline (PBS). Cells were then fixed with 2% paraformaldehyde for 15 minutes at room temperature and washed 1×PBS 2 times for 5 minutes each. Cells were incubated with 0.1% Triton-x-100 for 10 min on ice to permeabilize, then washed twice with 1×PBS prior to blocking with 3% bovine serum albumin in 1×PBS overnight at 4° C. In a humidified chamber, primary antibodies (1:50) in blocking buffer were added and incubated for 1 hour at 4° C., followed by three 10 minute rinses with blocking buffer. Secondary antibody (conjugated to Alexa Fluor 488, 1:1000) was added along with DAPI for 1 hour at room temperature. Cells were then rinsed, and coverslips were mounted onto slides and then sealed. Cells were then imaged with a confocal microscope with locked settings across the control and respective experimental conditions. For auto-fluorescence experiments with SN-30 and SSH20, images were taken at an emission wavelength of 543 nm. ImageJ was used to measure the fluorescence intensity of individual cells.

MP2 cell line = assay: Inhibitory activity of SN-38/HSA conjugates against the MP2 cell line; type: cell-based
Experimental: AlamarBlue proliferation assay was performed according to the manufacturer's instructions (BioRad Antibodies, Oxford, UK). Briefly, cells were seeded in 96-well plates in 4 replicates at a density of 100-300 cells per well in 100 μL medium and treated as described. Seventy-two hours after plating, alamarBlue reagent was added and incubated at 37° C. for 4-8 hours, and absorbance was measured at 570 and 600 nm.

H23 shCtrl/shCav-1 cells = assay: Uptake by direct fluorescence in H23 shCtrl vs shCav-1 cells; type: cell-based; settings: 250 nM pulsed 2 h
Experimental: as §1

[2] = pharmaceutical solvents; cited from earlier work
[3] = system: MP2-shCtrl/shCav-1 tumors; assay: MP2-shCtrl/shCav-1 flank xenografts in athymic nude mice; type: in vivo; settings: SSH20 10 mg/kg or molar equivalent of irinotecan, intravenous retro-orbital
Experimental: (§2) Briefly, 180 μL of SSH20 was added to 1620 μL of pooled human serum off the clot (Innovative Research, Novi, MI) to form a 10% SSH20 solution, which was incubated at 37° C. Aliquots were collected at preset time points, a fixed amount of internal standard (10-hydroxycamptothecin, 10-HCPT) was added to each sample aliquot and the solutions were mixed thoroughly on vortex prior to protein precipitation by acetonitrile. Protein precipitates were pulled down by 17,000×g centrifugation for 5 minutes. The dissociated SN-38 in the supernatant was analyzed by reverse-phase HPLC, using parameters described above, detected by PDA at 368 nm. SN-38/internal standard peak ratios were correlated with an SN-38 standard curve (using the same preparation method) to obtain the concentrations of released SN-38. The plot of the kinetics of SN-38 release was generated by Prism, and the half-life was calculated by one-phase exponential association. […] To obtain a tumor growth curve, perpendicular diameter measurements of each tumor were measured every 1-5 days from the first day of injection with digital calipers, and volumes were calculated using the formula (L×W×W)/2. Weight and clinical signs of toxicity were monitored several times per week.

[4] = system: H23-shCtrl/shCav-1 tumors; assay: H23-shCtrl/shCav-1 flank xenografts in athymic nude mice; type: in vivo; settings: SSH20 10 mg/kg or molar equivalent of irinotecan, intravenous retro-orbital
Experimental: as §2

With CCc1c2c(nc3ccc(O)cc13)-c1cc3c(c(=O)n1C2)COC(=O)[C@]3(O)CC [SN-38, 7-ethyl-10-hydroxy-camptothecin] the “difference in SN-38 autofluorescent signal between shCtrl and shCav-1 cells” value [1] was “no discernable difference”, the pIC50 (MP2 cell line) was 6.31 and the “difference in SN-38 autofluorescent signal between shCtrl and shCav-1 cells” value (H23 shCtrl/shCav-1 cells) was “no discernable difference”. The “solubility, in words” value [2] was “virtually insoluble in any pharmaceutical solvent”.
With CCc1c2c(nc3ccc(OC(=O)N4CCC(N5CCCCC5)CC4)cc13)-c1cc3c(c(=O)n1C2)COC(=O)[C@]3(O)CC [irinotecan, Irinotecan] the tumor growth rate [3] was “not reduced” and the tumor growth rate [4] was “not reduced”.
